According to PMC10797628:
Residue numbers refer to the chain shown, from its start. Where two headings read alike, the source gives them in different places.

Tests used:
Y5.38A 5-HT1D receptor [1] = molecular target: T1, Y5.38A 5-HT1D receptor (Homo sapiens, UniProt P28221, Y197A); experiment: cAMP accumulation in HEK293T cells, Y5.38A 5-HT1D; type: cell-based; set-up: host or cells: HEK293T; settings: point-mutated receptor, 3 independent experiments, read-out: pEC50 5-HT1D Receptor Y5.38A (converted)
Method: (§1) Briefly, cells transfected with the desired receptor construct and compounds were incubated in the dark for 90 min at 37 °C. After incubation, cAMP detection reagents were added, and TR-FRET was used to quantify the cAMP produced.
(§2) The functional activity of compounds was determined by stimulating cells expressing the desired receptor with FSK and test compound in parallel with 12 known concentrations of cAMP. The known concentrations of cAMP were used to create a standard curve for each experiment that was used to interpolate the unknown values of cAMP in wells with test compounds. […] The EC50 and EMAX values were determined using the “dose response – log[agonist] vs response (three parameter)” nonlinear regression model in Prism and transformed to pEC50 values, reported as mean ± SD.
(§3) Summary of functional assay conditions at various 5-HT1 receptor point mutation constructs.

Y5.38A 5-HT1D receptor [2] = molecular target: T1, Y5.38A 5-HT1D receptor; experiment: Radioligand binding, Y5.38A 5-HT1D
Method: (§4) 48 hours after transfection with the desired receptor construct, cells were isolated for saturation and competition binding assays as previously described.[47],[48],[57] Saturation and competition radioligand binding assays were conducted in an assay buffer consisting of 50 mM Tris HCl, 10 mM MgCl2, and 0.1 mM EDTA in filtered deionized water. […] Briefly, 5–10 μg of the receptor protein, as determined by a Thermo Fisher Pierce BCA protein assay kit, was incubated with 8 concentrations of radioligand in triplicate to determine total binding. […] Nonspecific binding was determined as above for saturation assays.
(§5) For radioligand binding data, nonspecific binding was subtracted from the total binding to get specific binding. Saturation binding data was fit to the “binding saturation-specific binding with hill slope” model. Competition binding data were fit to the “binding competition-one-site fit Ki” non-linear regression model and transformed to pKi values, reported as mean ± SD.
(§6) is 50 mM Tris HCl, 10 mM MgCl2 and 0.1 mM EDTA in filtered deionized water.

S5.42A 5-HT1B receptor = S5.42A 5-HT1B receptor (Homo sapiens, UniProt P28222, S212A); experiment: Radioligand binding, S5.42A 5-HT1B
Method: as §4, §5, §6

V45.52I 5-HT1D receptor = V45.52I 5-HT1D receptor (Homo sapiens, UniProt P28221, V190I); experiment: Radioligand binding, V45.52I 5-HT1D
Method: as §4, §5, §6

human 5-HT1D receptor [3] = molecular target: T2, human 5-HT1D receptor (Homo sapiens, UniProt P28221); experiment: Radioligand binding (saturation and competition), WT 5-HT1D; settings: for higher affinity at 5-HT1D over 5-HT1A receptors: affinity ratio
T2 construct: host or cells: HEK293T

human 5-HT1D receptor [4] = molecular target: T2, human 5-HT1D receptor; experiment: cAMP accumulation (LANCE Ultra TR-FRET) in HEK293T cells, WT 5-HT1D; type: cell-based; settings: for Emax: HEK-293T; for higher functional potency at 5-HT1D over 5-HT1A receptors: cAMP potency ratio; for EC50: cAMP accumulation, HEKt cells, mean ± SD
Method: as §1, §2, §3

T7.39N 5-HT1D receptor = T7.39N 5-HT1D receptor (Homo sapiens, UniProt P28221, T342N); experiment: cAMP accumulation in HEK293T cells, T7.39N 5-HT1D; type: cell-based; set-up: host or cells: HEK293T; settings: point-mutated receptor, 3 independent experiments, read-out: pEC50 5-HT1D Receptor N7.39T (converted)
Method: as §1, §2
Cell Type Receptor Cell Density [Forskolin] Incubation time
as §3

Y5.38F 5-HT1B receptor = molecular target: T3, Y5.38F 5-HT1B receptor (Homo sapiens, UniProt P28222, Y208F); experiment: Radioligand binding, Y5.38F 5-HT1B; settings: read-out: pKi 5-HT1B Receptor Y5.38F (converted)
T3 construct: host or cells: HEK293T

S5.42A 5-HT1A receptor = molecular target: T4, S5.42A 5-HT1A receptor (Homo sapiens, UniProt P08908, S199A); experiment: Radioligand binding, S5.42A 5-HT1A
T4 sequence (P08908 1-422 S199A): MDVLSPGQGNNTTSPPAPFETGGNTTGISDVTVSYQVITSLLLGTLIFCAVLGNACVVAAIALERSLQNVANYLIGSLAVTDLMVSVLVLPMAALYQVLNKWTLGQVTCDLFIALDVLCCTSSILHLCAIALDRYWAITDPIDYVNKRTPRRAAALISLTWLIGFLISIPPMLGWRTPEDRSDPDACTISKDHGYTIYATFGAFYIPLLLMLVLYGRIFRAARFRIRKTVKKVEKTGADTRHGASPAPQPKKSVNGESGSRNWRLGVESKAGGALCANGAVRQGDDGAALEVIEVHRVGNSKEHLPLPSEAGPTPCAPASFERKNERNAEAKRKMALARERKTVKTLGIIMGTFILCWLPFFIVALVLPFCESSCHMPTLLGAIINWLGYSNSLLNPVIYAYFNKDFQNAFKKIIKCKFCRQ
Method: as §4, §5, §6

V3.33I 5-HT1A receptor = molecular target: T5, V3.33I 5-HT1A receptor (Homo sapiens, UniProt P08908, V117I); experiment: Radioligand binding, V3.33I 5-HT1A
T5 sequence (P08908 1-422 V117I): T4 sequence (P08908 1-422 S199A) with V117I, A199S
Method: as §4, §5, §6

N7.39T 5-HT1A receptor = molecular target: T6, N7.39T 5-HT1A receptor (Homo sapiens, UniProt P08908, N386T); experiment: Radioligand binding, N7.39T 5-HT1A
T6 sequence (P08908 1-422 N386T): T4 sequence (P08908 1-422 S199A) with A199S, N386T
Method: as §4, §5, §6

[5] = Affinity (pKi ± SD) 5-HT1D, WT receptor, [^3H]5-CT competition, mean ± SD
[6] = read-out: 5-HT1D EMAX (%), WT receptor, normalized to basal (0%) and 10 μM 5-CT (100%)

Chain of T7.39N 5-HT1D receptor (P28221 whole entry T342N): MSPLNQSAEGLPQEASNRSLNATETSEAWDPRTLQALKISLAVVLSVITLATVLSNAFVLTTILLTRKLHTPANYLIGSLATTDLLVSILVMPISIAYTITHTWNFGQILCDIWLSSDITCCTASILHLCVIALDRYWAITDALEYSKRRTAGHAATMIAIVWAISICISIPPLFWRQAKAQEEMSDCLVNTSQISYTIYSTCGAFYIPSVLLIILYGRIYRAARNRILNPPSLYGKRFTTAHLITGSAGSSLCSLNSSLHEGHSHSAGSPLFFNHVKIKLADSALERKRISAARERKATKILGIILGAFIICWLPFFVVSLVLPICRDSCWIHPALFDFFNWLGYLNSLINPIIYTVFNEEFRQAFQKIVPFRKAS
T2 sequence (P28221 whole entry): as the sequence (P28221 whole entry T342N) above, with N342T counted along it
T3 sequence (P28222 whole entry Y208F): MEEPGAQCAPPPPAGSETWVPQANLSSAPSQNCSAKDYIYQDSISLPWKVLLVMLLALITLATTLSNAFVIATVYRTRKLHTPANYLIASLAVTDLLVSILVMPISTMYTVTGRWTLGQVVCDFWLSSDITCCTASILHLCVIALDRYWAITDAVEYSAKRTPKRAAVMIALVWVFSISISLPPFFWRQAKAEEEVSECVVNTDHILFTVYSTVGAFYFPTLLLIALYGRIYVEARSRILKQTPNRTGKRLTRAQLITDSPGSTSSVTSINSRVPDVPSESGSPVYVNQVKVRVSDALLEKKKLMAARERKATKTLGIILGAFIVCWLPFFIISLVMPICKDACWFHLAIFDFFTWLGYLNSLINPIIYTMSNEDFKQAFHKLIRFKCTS
T1 sequence (P28221 whole entry Y197A): as the sequence (P28221 whole entry T342N) above, with Y197A, N342T counted along it
Chain of S5.42A 5-HT1B receptor (P28222 whole entry S212A): as the sequence (P28222 whole entry Y208F) above, with F208Y, S212A counted along it
Chain of V45.52I 5-HT1D receptor (P28221 whole entry V190I): as the sequence (P28221 whole entry T342N) above, with V190I, N342T counted along it

CN(C)[C@H]1CCc2c(cccc2-c2ccccc2F)C1 [(S)-FPT]
EC50 (Y5.38A 5-HT1D receptor [1]): 1.45 nM
Ki (Y5.38A 5-HT1D receptor [2]): 1.07 nM
Ki (S5.42A 5-HT1B receptor): 2.57 nM
Ki (V45.52I 5-HT1D receptor): 1.05 nM
Ki (human 5-HT1D receptor [3]; [5]): 1.07 nM
higher affinity at 5-HT1D over 5-HT1A receptors (human 5-HT1D receptor [3]): 4 fold
Emax (human 5-HT1D receptor [4]; [6]): 103 ± 3%
higher functional potency at 5-HT1D over 5-HT1A receptors (human 5-HT1D receptor [4]): ~80 fold
EC50 (T7.39N 5-HT1D receptor): 14.1 nM
Ki (Y5.38F 5-HT1B receptor): 1.91 nM

CN(C)[C@H]1CCc2c(cccc2-c2cccc3ccccc23)C1 [(S)-NAP]
EC50 (Y5.38A 5-HT1D receptor [1]): 288 nM
Ki (Y5.38A 5-HT1D receptor [2]): 70.8 nM
Ki (S5.42A 5-HT1B receptor): 5.89 nM
Ki (S5.42A 5-HT1A receptor): 63.1 nM
Ki (V45.52I 5-HT1D receptor): 37.2 nM
Ki (V3.33I 5-HT1A receptor): 63.1 nM
Ki (human 5-HT1D receptor [3]; [5]): 0.832 nM
higher affinity at 5-HT1D over 5-HT1A receptors (human 5-HT1D receptor [3]): 70 fold
EC50 (human 5-HT1D receptor [4]; 5-HT1D pEC50, WT receptor): 8.71 nM
Emax (human 5-HT1D receptor [4]; [6]): 90 ± 3%
higher functional potency at 5-HT1D over 5-HT1A receptors (human 5-HT1D receptor [4]): ~40 fold
EC50 (T7.39N 5-HT1D receptor): 10 nM
Ki (Y5.38F 5-HT1B receptor): 5.62 nM
Ki (N7.39T 5-HT1A receptor): 66.1 nM

Fc1ccccc1-c1cccc2c1CC[C@H](N1CCCC1)C2 [(S)-PFPT]
EC50 (Y5.38A 5-HT1D receptor [1]): 191 nM
Ki (Y5.38A 5-HT1D receptor [2]): 42.7 nM
Ki (S5.42A 5-HT1B receptor): 102 nM
Ki (S5.42A 5-HT1A receptor): 1.48 nM
Ki (V45.52I 5-HT1D receptor): 14.8 nM
Ki (V3.33I 5-HT1A receptor): 8.13 nM
Ki (human 5-HT1D receptor [3]; read-out: Affinity (pKi ± SD) 5-HT1D (converted)): 13.5 nM
Emax (human 5-HT1D receptor [4]; read-out: 5-HT1D EMAX (%)): 98 ± 3%
EC50 (human 5-HT1D receptor [4]; WT receptor, read-out: 5-HT1D pEC50 (converted)): 57.5 nM
EC50 (T7.39N 5-HT1D receptor): 18.6 nM
Ki (Y5.38F 5-HT1B receptor): 15.1 nM
Ki (N7.39T 5-HT1A receptor): 8.51 nM
